Test [1] deals with T1, wild-type Epidermal Growth Factor Receptor (EGFR) (Homo sapiens, UniProt P00533).
T1 construct: a fragment of human EGFR (amino acids R669 to A1210); made in house; host or cells: Sf9 insect cells
Put plainly: WT-EGFR Kinase Assay (TR-FRET, 2 mM ATP). Type of test: biochemical. A digest of the protocol: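 GST-fused human EGFR fragment (R669-A1210) from Sf9 cells, typically 7.6 pg/μL, pre-incubated with compound 15 min at 22° C in Hepes pH 7.0 buffer with MgCl2, DTT and vanadate; biotinylated peptide substrate. After EDTA stop, phosphopeptide detected by TR-FRET (anti-phosphotyrosine Tb-cryptate/streptavidin-XL665), 665/620 nm emission ratio.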
Background: In TR-FRET formats the signal depends on donor and acceptor labels being close together.

Test [2] has as its target T2, full-length human CSNK1A1 (Homo sapiens, UniProt P48729).
T2 construct: N-terminal Glutathion-S-Transferase (GST) and full-length human CSNK1A1; purchased Life Technologies PV4174; host or cells: baculovirus infected insect cells
Put plainly: CSNK1A1 High ATP Assay (ADP-Glo, 1 mM ATP).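 Further: 30 min kinase reaction at 22 °C with 100 µM peptide substrate.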 The class given is biochemical. To be noted: Table 3, read-out: CSNK1A1 high ATP assay IC50 [mol/l] (median). The essentials: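 Kinase activity taken as ADP generated, quantified by ADP-Glo luminescence after 1 h ATP depletion and 1 h detection at 22 °C. Enzyme is GST–full-length human CSNK1A1 (insect cell-expressed), pre-bound to compound for 15 min, with phosphopeptide substrate and 1 mM ATP.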
For orientation: In ADP-Glo the light output rises with the ADP produced.

Setting [3] is: EGFR Wildtyp 2 mM ATP IC50 [mol/l] (median), Table 4.

“And” between values parts separate entries of the source, which are not always exact repeats. Equal values may be shown once. Read-outs that look alike come from different tables or passages of the source.

T1 sequence (P00533 669-1210): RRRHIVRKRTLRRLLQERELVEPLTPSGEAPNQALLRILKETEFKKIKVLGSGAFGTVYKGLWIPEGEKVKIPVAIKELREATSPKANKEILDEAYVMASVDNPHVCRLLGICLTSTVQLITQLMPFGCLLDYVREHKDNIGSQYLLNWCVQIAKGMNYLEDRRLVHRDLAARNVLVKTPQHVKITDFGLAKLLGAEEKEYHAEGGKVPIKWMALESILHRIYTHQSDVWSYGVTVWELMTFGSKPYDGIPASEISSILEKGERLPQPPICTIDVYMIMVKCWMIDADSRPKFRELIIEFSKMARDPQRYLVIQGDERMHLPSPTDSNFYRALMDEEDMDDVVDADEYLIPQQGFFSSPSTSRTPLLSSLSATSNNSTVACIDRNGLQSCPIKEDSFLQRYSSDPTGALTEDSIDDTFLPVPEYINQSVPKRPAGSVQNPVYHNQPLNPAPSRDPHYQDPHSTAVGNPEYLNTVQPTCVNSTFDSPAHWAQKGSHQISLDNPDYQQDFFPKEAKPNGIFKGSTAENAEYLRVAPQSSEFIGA
T2 sequence (P48729 whole entry): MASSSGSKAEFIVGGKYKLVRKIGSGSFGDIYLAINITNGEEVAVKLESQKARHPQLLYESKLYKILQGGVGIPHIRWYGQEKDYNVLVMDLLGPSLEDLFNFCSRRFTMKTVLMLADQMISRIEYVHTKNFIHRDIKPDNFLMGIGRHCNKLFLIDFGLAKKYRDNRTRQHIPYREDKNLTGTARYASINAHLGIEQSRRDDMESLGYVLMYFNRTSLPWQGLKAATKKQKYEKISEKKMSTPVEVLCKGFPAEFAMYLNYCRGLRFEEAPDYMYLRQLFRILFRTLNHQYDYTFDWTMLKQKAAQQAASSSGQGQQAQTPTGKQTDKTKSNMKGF

For `O=C(Nc1cc(-c2[nH]c3c(OCC4CCCO4)cc(F)nc3c2-c2ccccn2)ccn1)C(CC(F)F)c1ccc(F)cc1` (racemic) [Example 61, (2RS)-4,4-difluoro-N-{4-[5-fluoro-7-{[(2RS)-oxolan-2-yl]methoxy}-3-(pyridin-2-yl)-1H-pyrrolo[3,2-b]pyridin-2-yl]pyridin-2-yl}-2-(4-fluorophenyl)butanamide], the results for the IC50 in test [1] (setting [3]) and in test [2] were above 20 µM and 11.1 nM, respectively.
Taken in the same sequence, the figures for `COc1cnc2c(-c3ccccn3)c(-c3ccnc(NC(=O)C(CC(F)F)c4ccc(F)cc4)c3)[nH]c2c1` (stereo not drawn) [Example 81, 4,4-difluoro-2-(4-fluorophenyl)-N-{4-[6-methoxy-3-(pyridin-2-yl)-1H-pyrrolo[3,2-b]pyridin-2-yl]pyridin-2-yl}butanamide] were above 20 µM and 4.02 nM.
As for `O=C(Nc1cc(-c2[nH]c3ccc(F)nc3c2-c2ccccn2)ccn1)[C@@H](CC(F)F)c1ccc(F)cc1` (single isomer, unassigned) [Example 2], the IC50 in test [1] (setting [3]) is 18.4 µM and > 20 µM; in test [2] it was 5 nM.
`Cc1cnc2c(-c3ccccn3)c(-c3ccnc(NC(=O)C(CC(F)F)c4ccc(F)cc4)c3)[nH]c2n1` (stereo not drawn) [Example 85, 4,4-difluoro-2-(4-fluorophenyl)-N-{4-[3-methyl-7-(pyridin-2-yl)-5H-pyrrolo[2,3-b]pyrazin-6-yl]pyridin-2-yl}butanamide]: the IC50 in test [1] (setting [3]) was above 20 µM; in test [2] it was 4.21 nM.
Taken in the same sequence, the figures for `O=C(Nc1cc(-c2[nH]c3ncc(F)nc3c2-c2ccccn2)ccn1)C(CC(F)F)c1ccc(F)cc1` (single isomer, unassigned) [Example 63, (2R or S)-4,4-difluoro-2-(4-fluorophenyl)-N-{4-[2-fluoro-7-(pyridin-2-yl)-5H-pyrrolo[2,3-b]pyrazin-6-yl]pyridin-2-yl}butanamide] were above 20 µM and 1.48 nM.
Turning to `O=C(Nc1cc(-c2[nH]c3cc(F)cnc3c2-c2ccccn2)ccn1)C(CO)c1ccc(F)cc1` (racemic) [Example 71, (2RS)—N-(4-(6-fluoro-3-(pyridin-2-yl)-1H-pyrrolo[3,2-b]pyridin-2-yl)pyridin-2-yl)-2-(4-fluorophenyl)-3-hydroxypropanamide], the IC50 in test [1] (setting [3]) is above 20 µM; in test [2] it was 8.21 nM.
For `O=C(Nc1cc(-c2[nH]c3c(N4CCNCC4)ccnc3c2-c2ccccn2)ccn1)C(CC(F)F)c1ccc(F)cc1` (racemic) [Example 92, (2RS)-4,4-difluoro-2-(4-fluorophenyl)-N-{4-[7-(piperazin-1-yl)-3-(pyridin-2-yl)-1H-pyrrolo[3,2-b]pyridin-2-yl]pyridin-2-yl}butanamide], the IC50 in test [1] (setting [3]) was above 20 µM; in test [2] it was 2.35 nM.
With `O=C(Nc1cc(-c2[nH]c3cc(Cl)cnc3c2-c2ccccn2)ccn1)C(CC(F)F)c1ccc(F)cc1` (single isomer, unassigned) [Example 88, (+)—N-{4-[6-chloro-3-(pyridin-2-yl)-1H-pyrrolo[3,2-b]pyridin-2-yl]pyridin-2-yl}-4,4-difluoro-2-(4-fluorophenyl)butanamide], the IC50 in test [1] (setting [3]) is above 20 µM; in test [2], 4.72 nM.
In the case of `O=C(Nc1cc(-c2[nH]c3c(O[C@H]4CCOC4)cc(F)nc3c2-c2ccccn2)ccn1)C(CC(F)F)c1ccc(F)cc1` (single isomer, unassigned) [Example 54, (2R or S)-4,4-difluoro-N-{4-[5-fluoro-7-{[(3S)-oxolan-3-yl]oxy}-3-(pyridin-2-yl)-1H-pyrrolo[3,2-b]pyridin-2-yl]pyridin-2-yl}-2-(4-fluorophenyl)butanamide], the figures for the IC50 in test [1] (setting [3]) and in test [2] were above 20 µM and 4.22 nM, respectively.
Regarding `COc1cnc2c(-c3ccccn3)c(-c3ccnc(NC(=O)C(CC(F)F)c4ccc(F)cc4)c3)[nH]c2c1` (single isomer, unassigned) [Example 82, 4,4-difluoro-2-(4-fluorophenyl)-N-{4-[6-methoxy-3-(pyridin-2-yl)-1H-pyrrolo[3,2-b]pyridin-2-yl]pyridin-2-yl}butanamide], the results for the IC50 in test [1] (setting [3]) and in test [2] were above 20 µM and 2.68 nM, respectively.
As to `CN1CCN(c2cc(F)nc3c(-c4ccccn4)c(-c4ccnc(NC(=O)C(CC(F)F)c5ccc(F)cc5)c4)[nH]c23)CC1` (racemic) [Example 56, (2RS)-4,4-difluoro-N-{4-[5-fluoro-7-(4-methylpiperazin-1-yl)-3-(pyridin-2-yl)-1H-pyrrolo[3,2-b]pyridin-2-yl]pyridin-2-yl}-2-(4-fluorophenyl)butanamide], the values for the IC50 in test [1] (setting [3]) and in test [2] were above 20 µM and 3.19 nM, respectively.
With `O=C(Nc1cc(-c2[nH]c3c(O[C@H]4CCOC4)cc(F)nc3c2-c2ccccn2)ccn1)C(CC(F)F)c1ccc(F)cc1` (single isomer, unassigned) [Example 55, (2R or S)-4,4-difluoro-N-{4-[5-fluoro-7-{[(3S)-oxolan-3-yl]oxy}-3-(pyridin-2-yl)-1H-pyrrolo[3,2-b]pyridin-2-yl]pyridin-2-yl}-2-(4-fluorophenyl)butanamide], the IC50 in test [1] (read-out: EGFR Wildtyp 2 mM ATP IC50 [mol/l] (median), Table 4) was above 20 µM; in test [2], 18.3 nM.

For the origin of these results see patent publication US12692261B2, “Substituted heterocyclic compounds and therapeutic uses thereof” (Bayer Aktiengesellschaft, priority 2020, dated 2026).
